# In US12227500B2, “Substituted pyrrolo[2,3-b]pyridines for suppressing toxic endoplasmic reticulum stress” (THE TRUSTEES OF COLUMBIA UNIVERSITY IN THE CITY OF NEW YORK, priority 2018, dated 2025):
# Values joined by “and” are separate entries in the source; they are usually repeats but may differ in a detail not shown here. Identical values can stand only once. Like-named read-outs stand apart in the source and are kept apart here.
# How the values were obtained:
# [1] = target: T1, panel of 371 human kinases (Homo sapiens, UniProt O15075); assay: Radiolabeled ATP kinase assay, panel of 371 kinases (Table S6); format: biochemical; details: DCAMKL1; 0.1 μM; 10 μM ATP; read-out: % Enzyme Activity (relative to DMSO controls)
# T1 construct: purchased Reaction Biology Corp
# Text: (§1) ; FIG. 38C). […]. Further targeted analyses, such as genetic knock-down or knock-out, may be warranted to parse the role of these additional kinases in our model of neurodegeneration.
# [2] = target: T2, panel of 371 human kinases (Homo sapiens, UniProt P07333); assay: as above; format: biochemical; details: FMS; 0.1 μM; 10 μM ATP; read-out: % Enzyme Activity (relative to DMSO controls)
# T2 construct: purchased Reaction Biology Corp
# Text: as §1
# [3] = target: T3, panel of 371 human kinases (Homo sapiens, UniProt P09619); assay: as above; format: biochemical; details: PDGFRb; 0.1 μM; 10 μM ATP; read-out: % Enzyme Activity (relative to DMSO controls)
# T3 construct: purchased Reaction Biology Corp
# T3 sequence (P09619 33-1106): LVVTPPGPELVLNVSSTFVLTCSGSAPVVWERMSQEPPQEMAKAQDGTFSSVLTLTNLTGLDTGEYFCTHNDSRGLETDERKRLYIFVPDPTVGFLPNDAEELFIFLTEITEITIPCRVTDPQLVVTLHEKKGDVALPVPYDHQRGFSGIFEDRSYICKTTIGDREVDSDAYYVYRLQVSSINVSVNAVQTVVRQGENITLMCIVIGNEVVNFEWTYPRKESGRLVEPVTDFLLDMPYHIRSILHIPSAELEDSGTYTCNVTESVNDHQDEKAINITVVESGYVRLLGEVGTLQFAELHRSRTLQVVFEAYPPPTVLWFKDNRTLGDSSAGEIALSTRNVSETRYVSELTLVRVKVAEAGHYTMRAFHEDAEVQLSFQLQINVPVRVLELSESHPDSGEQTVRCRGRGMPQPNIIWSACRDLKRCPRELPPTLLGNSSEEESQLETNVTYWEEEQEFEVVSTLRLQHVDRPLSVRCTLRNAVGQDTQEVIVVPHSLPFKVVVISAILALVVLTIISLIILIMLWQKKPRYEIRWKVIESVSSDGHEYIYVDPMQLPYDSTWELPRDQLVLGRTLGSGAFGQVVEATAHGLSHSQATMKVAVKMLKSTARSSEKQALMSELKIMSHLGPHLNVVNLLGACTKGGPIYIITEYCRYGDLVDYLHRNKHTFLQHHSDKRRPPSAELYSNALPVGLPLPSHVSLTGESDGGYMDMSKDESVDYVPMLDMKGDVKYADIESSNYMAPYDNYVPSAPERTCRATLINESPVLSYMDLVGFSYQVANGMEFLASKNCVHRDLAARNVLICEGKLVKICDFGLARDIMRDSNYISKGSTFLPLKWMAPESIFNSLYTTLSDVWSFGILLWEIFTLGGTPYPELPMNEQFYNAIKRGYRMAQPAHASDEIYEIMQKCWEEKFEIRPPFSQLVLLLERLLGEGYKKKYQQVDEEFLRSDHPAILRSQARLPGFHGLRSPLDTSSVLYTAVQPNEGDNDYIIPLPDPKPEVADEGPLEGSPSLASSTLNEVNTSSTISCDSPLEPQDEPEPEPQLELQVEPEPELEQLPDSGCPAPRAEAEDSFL
# Text: as §1
# [4] = target: T4, panel of 371 human kinases (Homo sapiens, UniProt P22694); assay: as above; format: biochemical; details: PKAcb; 0.1 μM; 10 μM ATP; read-out: % Enzyme Activity (relative to DMSO controls)
# T4 construct: purchased Reaction Biology Corp
# Text: as §1
# [5] = target: T5, panel of 371 human kinases (Homo sapiens, UniProt Q12852); assay: as above; format: biochemical; details: DLK/MAP3K12; 0.1 μM; 10 μM ATP; read-out: % Enzyme Activity (relative to DMSO controls)
# T5 construct: purchased Reaction Biology Corp
# T5 sequence (Q12852 whole entry): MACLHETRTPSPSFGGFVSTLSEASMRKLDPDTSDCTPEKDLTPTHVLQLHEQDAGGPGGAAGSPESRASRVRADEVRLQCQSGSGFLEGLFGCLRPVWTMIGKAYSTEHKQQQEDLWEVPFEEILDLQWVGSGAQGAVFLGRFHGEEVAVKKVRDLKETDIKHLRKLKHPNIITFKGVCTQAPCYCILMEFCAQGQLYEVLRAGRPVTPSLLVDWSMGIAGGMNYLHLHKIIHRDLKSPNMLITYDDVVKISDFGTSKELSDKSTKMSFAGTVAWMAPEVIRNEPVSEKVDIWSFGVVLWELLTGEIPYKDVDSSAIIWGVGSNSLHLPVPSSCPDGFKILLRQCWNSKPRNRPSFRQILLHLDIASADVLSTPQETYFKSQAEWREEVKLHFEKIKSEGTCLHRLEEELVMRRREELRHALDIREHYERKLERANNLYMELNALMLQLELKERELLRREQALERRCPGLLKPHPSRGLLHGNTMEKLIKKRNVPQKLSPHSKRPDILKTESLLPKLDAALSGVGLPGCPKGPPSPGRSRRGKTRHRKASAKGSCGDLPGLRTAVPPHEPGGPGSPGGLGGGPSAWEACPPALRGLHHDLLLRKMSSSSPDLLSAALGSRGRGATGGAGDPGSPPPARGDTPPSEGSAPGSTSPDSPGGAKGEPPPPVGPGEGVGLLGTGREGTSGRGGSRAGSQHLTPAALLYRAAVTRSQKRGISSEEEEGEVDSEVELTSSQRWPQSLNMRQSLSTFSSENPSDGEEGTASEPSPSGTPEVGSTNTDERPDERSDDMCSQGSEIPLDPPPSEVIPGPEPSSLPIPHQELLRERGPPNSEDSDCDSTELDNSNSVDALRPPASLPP
# Text: as §1
# [6] = target: T6, panel of 371 human kinases (Homo sapiens, UniProt Q13470); assay: as above; format: biochemical; details: TNK1; 0.1 μM; 10 μM ATP; read-out: % Enzyme Activity (relative to DMSO controls)
# T6 construct: purchased Reaction Biology Corp
# T6 sequence (Q13470 whole entry): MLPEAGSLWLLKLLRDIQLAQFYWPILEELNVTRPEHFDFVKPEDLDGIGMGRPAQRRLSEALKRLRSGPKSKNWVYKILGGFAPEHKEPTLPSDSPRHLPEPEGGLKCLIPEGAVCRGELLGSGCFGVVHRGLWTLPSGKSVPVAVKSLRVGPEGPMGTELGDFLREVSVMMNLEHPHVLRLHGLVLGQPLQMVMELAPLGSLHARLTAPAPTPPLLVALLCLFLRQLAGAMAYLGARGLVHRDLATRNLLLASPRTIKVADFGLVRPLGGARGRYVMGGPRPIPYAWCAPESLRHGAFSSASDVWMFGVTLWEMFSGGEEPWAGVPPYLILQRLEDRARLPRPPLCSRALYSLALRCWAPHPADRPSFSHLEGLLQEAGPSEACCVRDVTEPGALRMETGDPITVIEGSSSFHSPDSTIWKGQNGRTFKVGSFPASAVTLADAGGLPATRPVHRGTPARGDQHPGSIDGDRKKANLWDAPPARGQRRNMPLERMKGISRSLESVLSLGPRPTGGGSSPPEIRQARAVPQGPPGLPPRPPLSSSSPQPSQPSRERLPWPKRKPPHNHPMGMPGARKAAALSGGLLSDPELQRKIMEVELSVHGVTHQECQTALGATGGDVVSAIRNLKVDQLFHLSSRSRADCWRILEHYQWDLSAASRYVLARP
# Text: as §1
# [7] = target: T7, panel of 371 human kinases (Homo sapiens, UniProt Q14289); assay: as above; format: biochemical; details: PYK2; 0.1 μM; 10 μM ATP; read-out: % Enzyme Activity (relative to DMSO controls)
# T7 construct: purchased Reaction Biology Corp
# Text: as §1
# [8] = target: T8, panel of 371 human kinases (Homo sapiens, UniProt Q16816); assay: as above; format: biochemical; details: PHKg1; 0.1 μM; 10 μM ATP; read-out: % Enzyme Activity (relative to DMSO controls)
# T8 construct: purchased Reaction Biology Corp
# T8 sequence (Q16816 whole entry): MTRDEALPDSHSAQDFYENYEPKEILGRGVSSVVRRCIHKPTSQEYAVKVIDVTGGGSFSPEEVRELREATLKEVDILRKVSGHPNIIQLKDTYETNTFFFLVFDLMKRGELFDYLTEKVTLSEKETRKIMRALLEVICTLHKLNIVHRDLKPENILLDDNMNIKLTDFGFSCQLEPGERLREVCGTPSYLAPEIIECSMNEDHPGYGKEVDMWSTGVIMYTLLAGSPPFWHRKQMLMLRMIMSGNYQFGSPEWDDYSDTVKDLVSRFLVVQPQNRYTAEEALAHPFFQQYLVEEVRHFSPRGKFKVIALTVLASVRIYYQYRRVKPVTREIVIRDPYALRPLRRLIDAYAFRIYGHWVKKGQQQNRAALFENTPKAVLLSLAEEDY
# Text: as §1
# [9] = target: T9, panel of 371 human kinases (Homo sapiens, UniProt Q16832); assay: as above; format: biochemical; details: DDR2; 0.1 μM; 10 μM ATP; read-out: % Enzyme Activity (relative to DMSO controls)
# T9 construct: purchased Reaction Biology Corp
# Text: as §1
# [10] = target: T10, panel of 371 human kinases (Homo sapiens, UniProt Q6VAB6); assay: as above; format: biochemical; details: KSR2; 0.1 μM; 10 μM ATP; read-out: % Enzyme Activity (relative to DMSO controls)
# T10 construct: purchased Reaction Biology Corp
# Text: as §1
# [11] = target: T11, panel of 371 human kinases (Homo sapiens, UniProt Q8NG66); assay: as above; format: biochemical; details: NEK11; 0.1 μM; 10 μM ATP; read-out: % Enzyme Activity (relative to DMSO controls)
# T11 construct: purchased Reaction Biology Corp
# T11 sequence (Q8NG66 whole entry): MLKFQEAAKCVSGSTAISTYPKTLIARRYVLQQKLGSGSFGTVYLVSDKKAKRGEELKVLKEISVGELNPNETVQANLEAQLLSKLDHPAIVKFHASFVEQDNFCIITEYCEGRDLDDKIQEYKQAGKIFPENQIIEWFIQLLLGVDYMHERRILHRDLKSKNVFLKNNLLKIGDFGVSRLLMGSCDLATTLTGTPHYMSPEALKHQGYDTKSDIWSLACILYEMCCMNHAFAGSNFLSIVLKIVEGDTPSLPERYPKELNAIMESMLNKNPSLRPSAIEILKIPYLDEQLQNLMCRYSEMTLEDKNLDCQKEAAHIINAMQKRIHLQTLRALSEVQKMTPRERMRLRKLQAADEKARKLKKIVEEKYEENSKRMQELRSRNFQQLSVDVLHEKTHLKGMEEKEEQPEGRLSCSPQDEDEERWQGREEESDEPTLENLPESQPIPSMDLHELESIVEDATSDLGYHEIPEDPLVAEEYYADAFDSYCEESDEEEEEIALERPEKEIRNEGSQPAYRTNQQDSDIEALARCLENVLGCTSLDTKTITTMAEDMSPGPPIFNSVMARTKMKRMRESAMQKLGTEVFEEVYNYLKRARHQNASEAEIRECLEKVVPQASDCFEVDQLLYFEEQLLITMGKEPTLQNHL
# Text: as §1
# [12] = target: T12, panel of 371 human kinases (Homo sapiens, UniProt Q8WXR4); assay: as above; format: biochemical; details: MYO3b; 0.1 μM; 10 μM ATP; read-out: % Enzyme Activity (relative to DMSO controls)
# T12 construct: purchased Reaction Biology Corp
# Text: as §1
# [13] = target: T13, panel of 371 human kinases (Homo sapiens, UniProt Q9BUB5); assay: as above; format: biochemical; details: MNK1; 0.1 μM; 10 μM ATP; read-out: % Enzyme Activity (relative to DMSO controls)
# T13 construct: purchased Reaction Biology Corp
# T13 sequence (Q9BUB5 whole entry): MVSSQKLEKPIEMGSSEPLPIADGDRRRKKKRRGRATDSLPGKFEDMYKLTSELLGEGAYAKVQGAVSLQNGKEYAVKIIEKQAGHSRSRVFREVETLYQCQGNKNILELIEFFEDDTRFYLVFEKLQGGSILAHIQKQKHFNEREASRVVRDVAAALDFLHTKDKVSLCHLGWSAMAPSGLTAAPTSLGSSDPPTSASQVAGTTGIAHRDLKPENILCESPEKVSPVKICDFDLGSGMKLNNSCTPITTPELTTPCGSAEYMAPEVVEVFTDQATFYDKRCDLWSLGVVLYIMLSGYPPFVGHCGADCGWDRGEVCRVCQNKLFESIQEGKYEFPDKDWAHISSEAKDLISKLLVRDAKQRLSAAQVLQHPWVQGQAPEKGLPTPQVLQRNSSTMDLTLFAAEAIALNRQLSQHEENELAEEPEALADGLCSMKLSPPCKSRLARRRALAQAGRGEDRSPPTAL
# Text: as §1
# [14] = target: T14, panel of 371 human kinases (Homo sapiens, UniProt Q9UHD2); assay: as above; format: biochemical; details: TBK1; 0.1 μM; 10 μM ATP; read-out: % Enzyme Activity (relative to DMSO controls)
# T14 construct: purchased Reaction Biology Corp
# Text: as §1
# [15] = target: T15, panel of 371 human kinases (Homo sapiens, UniProt Q9UPE1); assay: as above; format: biochemical; details: MSSK1/STK23; 0.1 μM; 10 μM ATP; read-out: % Enzyme Activity (relative to DMSO controls)
# T15 construct: purchased Reaction Biology Corp
# T15 sequence (Q9UPE1 whole entry): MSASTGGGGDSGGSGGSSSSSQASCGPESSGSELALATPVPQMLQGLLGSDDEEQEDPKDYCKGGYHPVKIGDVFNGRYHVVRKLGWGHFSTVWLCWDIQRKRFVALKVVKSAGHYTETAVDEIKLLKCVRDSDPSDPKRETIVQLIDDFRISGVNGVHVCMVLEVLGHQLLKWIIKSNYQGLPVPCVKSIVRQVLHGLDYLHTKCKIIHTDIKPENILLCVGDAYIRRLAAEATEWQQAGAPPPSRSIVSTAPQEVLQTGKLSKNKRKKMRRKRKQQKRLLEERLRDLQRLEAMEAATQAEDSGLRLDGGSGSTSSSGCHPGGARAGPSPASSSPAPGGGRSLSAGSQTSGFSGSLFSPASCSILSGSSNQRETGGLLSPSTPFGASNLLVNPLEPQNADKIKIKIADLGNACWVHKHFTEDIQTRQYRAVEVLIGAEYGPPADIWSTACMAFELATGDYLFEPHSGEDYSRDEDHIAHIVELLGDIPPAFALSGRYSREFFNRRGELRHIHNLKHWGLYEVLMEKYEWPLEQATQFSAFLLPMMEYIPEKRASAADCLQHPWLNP
# Text: as §1
# [16] = Plasma and brain concentration 30 min after IP injection; format: in vivo, mouse; details: male, C57BL6/J, mouse, mice, ip dosing, 30 minutes; for Kp at 30 min: brain/plasma, read-out: B/P
# Experimental: All studies were performed on 6-week old male C57BL6/J mice that were housed in the Columbia University Medical Center facility in a 12h light/dark cycle with access to food and water ad libitum. All animal procedures were approved by the Columbia University IACUC. […] Animals were weighed and injected once intraperitoneally (IP) at the indicated dose (10 or 20 mg/kg). After 30 min, animals were deeply anesthetized with 2.5% Avertin. Whole blood was collected by cardiac puncture in tubes containing 0.5M EDTA as an anticoagulant, and centrifuged for 10 min at 845 rcf at 4° to isolate plasma. Following cardiac puncture, animals were decapitated and brains were dissected and weighed. Brain samples were homogenized with a glass dounce homogenizer in 5 volumes of ddH2O. Brain and plasma samples were snap frozen in liquid nitrogen and stored at −80° C. before further processing.
# The plasma samples were transferred to Eppendorf tubes (50 μL per sample) and diluted with acetonitrile (200 μL). The samples were sonicated for 1 minute followed by centrifugation at 16,000 rpm for 10 minutes. The supernatant was transferred to another Eppendorf tube and the solvent evaporated overnight. The samples were reconstituted in a mixture of 40 μL acetonitrile and 10 μL water transferred to a sample vial with insert, and analyzed by LC-MS.
# The homogenized brain samples (250 μL) were transferred to Eppendorf tubes and diluted with acetonitrile (750 μL). The samples were sonicated for 1 minute followed by centrifugation at 16,000 rpm for 10 minutes. The supernatant (900 μL) was transferred to another Eppendorf tube and the solvent evaporated overnight. The samples were reconstituted in a mixture of 80 μL acetonitrile and 20 μL water, transferred to a sample vial with insert, and analyzed by LC-MS.
# LC-MS analysis was performed on a platform comprising a Thermo Scientific Dionex Ultimate 3000 and a Bruker amaZon SL equipped with an electrospray ionization source controlled by Bruker Hystar 3.2. The compound concentration in each plasma sample was determined using a calibration curve. Chromatographic separation was performed by injecting 10 μL of the sample onto an Agilent Eclipse Plus C18 column (2.1×50 mm, 3.5 μm) maintained at 20° C. The flow rate was maintained at 400 μL/min. The initial flow conditions were 60% solvent A (water containing 0.1% acetic acid) and 40% solvent B (methanol containing 0.1% acetic acid). Solvent B was raised to 60% over 0.25 minutes and to 70% by 6.75 minutes.
smiles,measurement,setting,value
"CN1CCN(Cc2ccc(-c3cnc4[nH]cc(-c5ccc6[nH]ccc6c5)c4c3)cc2)CC1 [Compound 1, 3-(1H-Indol-5-yl)-5-(4-((4-methylpiperazin-1-yl)methyl)phenyl)-1H-pyrrolo[2,3-b]pyridine, reference compound]",remaining activity at 0.1 µM,[1],97.2%
same,remaining activity at 0.1 µM,[2],85.4%
same,remaining activity at 0.1 µM,[3],94.2%
same,remaining activity at 0.1 µM,[4],106%
same,remaining activity at 0.1 µM,[5],90.8%
same,remaining activity at 0.1 µM,[6],97%
same,remaining activity at 0.1 µM,[7],84.8%
same,remaining activity at 0.1 µM,[8],37.6%
same,remaining activity at 0.1 µM,[9],102%
same,remaining activity at 0.1 µM,[10],102%
same,remaining activity at 0.1 µM,[11],107%
same,remaining activity at 0.1 µM,[12],80.8%
same,remaining activity at 0.1 µM,[13],94%
same,remaining activity at 0.1 µM,[14],82.8%
same,remaining activity at 0.1 µM,[15],112%
same,Kp at 30 min,[16]; 10 mg/kg,0.3
same,Kp at 30 min,[16]; 20 mg/kg,0.4
same,concentration at 30 min,"[16]; 10 mg/kg, read-out: brain",1010 ng/g and 1.89 µM
same,concentration at 30 min,"[16]; 10 mg/kg, read-out: plasma",3210 ng/mL and 6 µM
same,concentration at 30 min,"[16]; 20 mg/kg, read-out: brain",1410 ng/g and 2.64 µM
same,concentration at 30 min,"[16]; 20 mg/kg, read-out: plasma",3480 ng/mL and 6.5 µM
"OCCN1CCN(Cc2ccc(-c3cnc4[nH]cc(-c5cccc(Cl)c5)c4c3)cc2)CC1 [Compound 12k, 2-(4-(4-(3-(3-Chlorophenyl)-1H-pyrrolo[2,3-b]pyridin-5-yl)benzyl)piperazin-1-yl)ethan-1-ol]",remaining activity at 0.1 µM,[1],94.2%
same,remaining activity at 0.1 µM,[2],26.8%
same,remaining activity at 0.1 µM,[3],96.3%
same,remaining activity at 0.1 µM,[4],92.6%
same,remaining activity at 0.1 µM,[5],82.8%
same,remaining activity at 0.1 µM,[6],95.6%
same,remaining activity at 0.1 µM,[7],89.2%
same,remaining activity at 0.1 µM,[8],74.5%
same,remaining activity at 0.1 µM,[9],100%
same,remaining activity at 0.1 µM,[10],106%
same,remaining activity at 0.1 µM,[11],101%
same,remaining activity at 0.1 µM,[12],40.7%
same,remaining activity at 0.1 µM,[13],90.7%
same,remaining activity at 0.1 µM,[14],75.2%
same,remaining activity at 0.1 µM,[15],103%
same,Kp at 30 min,[16]; 10 mg/kg,3.3
same,Kp at 30 min,[16]; 20 mg/kg,4
same,concentration at 30 min,"[16]; 10 mg/kg, read-out: brain",1230 ng/g and 2.74 µM
same,concentration at 30 min,"[16]; 10 mg/kg, read-out: plasma",< 375 ng/mL and < 840 nM
same,concentration at 30 min,"[16]; 20 mg/kg, read-out: brain",5180 ng/g and 11.6 µM
same,concentration at 30 min,"[16]; 20 mg/kg, read-out: plasma",1290 ng/mL and 2.88 µM
